{"source": "patent US5994361A", "about": "“Substituted purinyl derivatives with immunomodulating activity” (priority 1995, dated 1999)", "key": {"[1]": {"system": "spleen cells", "experiment": "Immunophenotyping on spleen cells of compound #1 treated mice", "format": "in vivo, C57/BLJ6 mice", "details": "N = 10", "protocol": "(§1) After in vivo drugs analysis, the drugs were evaluated on whole blood for drug stability and toxicity. Furthermore, in vivo/ex vivo analysis was performed on normal and cyclophosphamide immunosuppressed animals plus 5Fu-treated animals. Cell immunophenotyping was performed on mouse-treatedblood and spleen. The following cell surface antigens were analyzed:\n(§2) CD3 (all T cells), CD4 (T helper/inducer, binds class II-restricted T cells), CD8a (cytotoxic T cells, CTL adhesion), CD11a (T, B, NK, some stem cells, CTL adhesion anti LFA-1α), MAC-1 (monocyte/macrophage), NK (natural killer cells), Ly5 (B cells), CD45 (all leukocytes, protein tyrosine phosphates), and TCR (T cell receptor).\n(§3) C57/BLJ6 mice (6-8 weeks old) were injected daily for 4 consecutive days, sacrificed at day 5 and immunophenotyping was performed on blood and spleen cells.\n(§4) The cells were washed twice in PBS, resuspended in 1 ml of RPMI 2% FBS, and incubated for 45 min. on ice with monoclonal antibody. The cells were washed once, fixed with 1% paraformaldehyde, then analyzed using XL Coulter® counter."}, "[2]": {"system": "B cell activity (LPS), spleen mononuclear leukocytes", "experiment": "Mitogenic proliferation on spleen cell suspension, B (LPS)", "format": "cell-based, C57BL-6 mice", "details": "Mus musculus, Leukocyte, 72 h; at 10^-6 (M)", "text": "(§5) Mitogenic lectin (mitogen) is a protein which binds and cross-links specific cells surface carbohydrate determinants, and will polyclonally stimulate lymphoid cells. Lymphocyte activation by either antigens or mitogens results in intracellular changes and the subsequent development into a lymphoblast. Mitogenic stimulation of lymphocytes in vitro is believed to mimic the series of events which occur in vivo following their stimulation by specific antigens. PHA, ConA, and PWM, LPS mitogens can be used as a measurement of T cell and B cell activity, respectively.\n(§6) Briefly, spleen mononuclear leukocytes from C57BL-6 mice were incubated in the presence or absence of mitogens with or without tested drugs. After 72 hours or 5 days, ^3 H thymidine incorporation was recorded as an indication of cell transformation and proliferation.\n(§7) 100 μl of a suspension of 2×10^6 cells/ml (2×10^5 cells/well) were incubated in presence of PHA or ConA or PWM or LPS at the following concentrations:\n(§8) PHA=0.01% final concentration-0.001%\n(§9) Cells were incubated in presence or absence of drugs for 72 hours. 0.5 or 1 μCi of tritiated thymidine (^3 H) was added per well the last 18 or 6 hours of incubation respectively. Cells were harvested and counted on a Beta counter."}, "[3]": {"system": "blood cells", "experiment": "Immunophenotyping on blood cells, combination with cyclophosphamide", "format": "in vivo, C57/BLJ6 mice", "details": "N = 4", "protocol": "as §1, §2, §3, §4"}, "[4]": {"system": "blood cells", "experiment": "Immunophenotyping on blood cells of compound #1 treated mice", "format": "in vivo, C57/BLJ6 mice", "parameters": "unit not given here", "details": "N = 10; for CD8+ CD45+ (mean): daily 4 days", "protocol": "as §1, §2, §3, §4"}, "[5]": {"system": "T cell activity (ConA), spleen mononuclear leukocytes", "experiment": "Mitogenic proliferation on spleen cell suspension, T (ConA)", "format": "cell-based, C57BL-6 mice", "details": "at 10^-8 - 10^-5 (M); 4320 min", "text": "as §5, §6, §7, §8, §9"}, "[6]": {"system": "spleen cells", "experiment": "Immunophenotyping on spleen cells, combination with cyclophosphamide", "format": "in vivo, C57/BLJ6 mice", "details": "in combination with cyclophosphamide", "protocol": "as §1, §2, §3, §4"}, "[7]": {"experiment": "Body weight, compound #1 with Cytoxan 20 mg/kg (Example 93)", "format": "in vivo", "details": "compound #1 + CTX 20 mg/kg", "protocol": "Combination of compound #1 (25 and 50 mg/kg i.p. daily) plus CTX (20 mg/kg i.v. single bolus) was evaluated against day 4 established DA-3 tumors."}, "[8]": {"system": "spleen cells", "experiment": "Immunophenotyping on spleen cells, combination with 5 Fluorouracil", "format": "in vivo, C57/BLJ6 mice", "details": "N = 4", "protocol": "as §1, §2, §3, §4"}, "[9]": {"experiment": "Body weight, compound #1 with Cytoxan 28 mg/kg (Example 94)", "format": "in vivo, Balb/c mice", "parameters": "body weight: unit not given here", "protocol": "In another experiment, the CTX treatment was prolonged. Balb/c mice were injected s.c. with 5×10^5 DA-3 tumor cells at day 0. At day 4 when established tumors appeared, tumor-bearing animals were randomized (n=11/gr.) and injected with CTX (at 28 mg/kg) i.v. bolus injections at days 4, 11, and 18. […]"}, "[10]": {"system": "Fisher male and female rats", "experiment": "In vivo toxicity, repeated intravenous injections (Example 96)", "protocol": "The objective of this study was to find the toxic dose of compound #1 after repeated intravenous injections in Fisher male and female rats.\nGroups of 3 male rats, and 3 female rats were injected daily i.v. for 5 consecutive days. A first group received 500 mg/kg, a second group 250 mg/kg, and a third group 125 mg/kg. In addition, one male and one female were injected with 1000 mg/kg. An untreated group (male and female) was included in the experiment. For all doses a constant volume of […] was used. Injections were started on day 0 and continued until day 4 (5 days). […] On day 8, the rats were euthanatized and a macroscopic examination of the internal organs was performed."}, "[11]": {"details": "250 mg/kg and 125 mg/kg i.v., 5 days"}}, "note": "“Also recorded” adds a separate entry of the source.", "data": [{"smiles": "CN(C)c1ncnc2c1ncn2CCCCCOC(=O)N[C@H](CCCNC(=N)N)C(=O)O", "note": "[Compound #1, N,N-Dimethylaminopurinyl Pentoxycarbonyl D-Arginine]", "values": [{"measurement": "Ly5 (mean)", "setting": "[1]; 25 mg/kg", "result": 54.08}, {"measurement": "TCR+ (mean)", "setting": "[1]; 25 mg/kg", "result": 39.78}, {"measurement": "Ly5 (mean)", "setting": "[1]; 50 mg/kg", "result": 50.35}, {"measurement": "TCR+ (mean)", "setting": "[1]; 50 mg/kg", "result": 45.09}, {"measurement": "fold induction at 1 µM", "setting": "[2]", "result": 2}, {"measurement": "CP8+ CD45+ (mean)", "setting": "[3]; CY + cpd #1 25 mg/kg", "result": 13.25}, {"measurement": "CP8+ CD45+ (mean)", "setting": "[3]; CY + cpd #1 50 mg/kg", "result": 20.8}, {"measurement": "CD11b+ (mean)", "setting": "[4]; 25 mg/kg", "result": 13.71}, {"measurement": "NK+ CD3+ (mean)", "setting": "[4]; 25 mg/kg", "result": 5.84}, {"measurement": "NK+ CD3- (mean)", "setting": "[4]; 25 mg/kg", "result": 5.90}, {"measurement": "CD8+ CD45+ (mean)", "setting": "[4]; 25 mg/kg", "result": 10.11}, {"measurement": "CD11b+ (mean)", "setting": "[4]; 50 mg/kg", "result": 9.68}, {"measurement": "NK+ CD3+ (mean)", "setting": "[4]; 50 mg/kg", "result": 3.25}, {"measurement": "NK+ CD3- (mean)", "setting": "[4]; 50 mg/kg", "result": 8.14}, {"measurement": "CD8+ CD45+ (mean)", "setting": "[4]; 50 mg/kg", "result": 8.65}, {"measurement": "T (ConA) mitogenic proliferation", "setting": "[5]", "result": "2 - 4 ×"}, {"measurement": "Immunophenotyping, spleen", "setting": "[6]", "result": "no effect"}, {"measurement": "body weight loss", "setting": "[7]", "result": "No significant body weight loss"}, {"measurement": "CD4+ CD45- (mean)", "setting": "[8]; 5 FU + cpd #1 25 mg/kg", "result": 13.19}, {"measurement": "NK+ (mean)", "setting": "[8]; 5 FU + cpd #1 25 mg/kg", "result": 3.32}, {"measurement": "CD4+ CD45- (mean)", "setting": "[8]; 5 FU + cpd #1 50 mg/kg", "result": 12.06}, {"measurement": "NK+ (mean)", "setting": "[8]; 5 FU + cpd #1 50 mg/kg", "result": 3.17}, {"measurement": "body weight", "setting": "[9]; BCH-1393 50 mg/kg + CTX 28 mg/kg, day 7", "result": 18.2}, {"measurement": "body weight", "setting": "[9]; BCH-1393 50 mg/kg + CTX 28 mg/kg, day 9", "result": 19.1}, {"measurement": "body weight", "setting": "[9]; BCH-1393 50 mg/kg + CTX 28 mg/kg, day 11", "result": 19.0}, {"measurement": "body weight", "setting": "[9]; BCH-1393 50 mg/kg + CTX 28 mg/kg, day 14", "result": 18.6}, {"measurement": "body weight", "setting": "[9]; BCH-1393 50 mg/kg + CTX 28 mg/kg, day 16", "result": 19.5}, {"measurement": "body weight", "setting": "[9]; BCH-1393 50 mg/kg + CTX 28 mg/kg, day 18", "result": 19.3}, {"measurement": "body weight", "setting": "[9]; BCH-1393 50 mg/kg + CTX 28 mg/kg, day 21", "result": 18.9}, {"measurement": "body weight", "setting": "[9]; BCH-1393 50 mg/kg + CTX 28 mg/kg, day 23", "result": 18.8}, {"measurement": "body weight", "setting": "[9]; BCH-1393 50 mg/kg + CTX 28 mg/kg, day 25", "result": 19.5}, {"measurement": "body weight", "setting": "[9]; BCH-1393 50 mg/kg + CTX 28 mg/kg, day 28", "result": 19.4}, {"measurement": "body weight", "setting": "[9]; BCH-1393 50 mg/kg + CTX 28 mg/kg, day 30", "result": 19.3}, {"measurement": "body weight", "setting": "[9]; BCH-1393 50 mg/kg Ip (Days 3-28) + CTX 28 mg/kg Iv (days 4, 11, 18), day 4", "result": 18.7}, {"measurement": "body weight loss", "setting": "[9]; compound #1 50 mg/kg + CTX 28 mg/kg", "result": "No significant body weight loss"}, {"measurement": "body weight", "setting": "[9]; single agent (CTX 28 mg/kg days 4, 11, 18, or BCH-1393 50 mg/kg days 3-28), day 4", "result": 18.6}, {"measurement": "body weight", "setting": "[9]; single agent (CTX 28 mg/kg or BCH-1393 50 mg/kg), day 7", "result": 19.1}, {"measurement": "body weight", "setting": "[9]; single agent (CTX 28 mg/kg or BCH-1393 50 mg/kg), day 9", "result": 19.3}, {"measurement": "body weight", "setting": "[9]; single agent (CTX 28 mg/kg or BCH-1393 50 mg/kg), day 11", "result": 18.9}, {"measurement": "body weight", "setting": "[9]; single agent (CTX 28 mg/kg or BCH-1393 50 mg/kg), day 14", "result": 18.9}, {"measurement": "body weight", "setting": "[9]; single agent (CTX 28 mg/kg or BCH-1393 50 mg/kg), day 16", "result": 19.5}, {"measurement": "body weight", "setting": "[9]; single agent (CTX 28 mg/kg or BCH-1393 50 mg/kg), day 18", "result": 18.9}, {"measurement": "body weight", "setting": "[9]; single agent (CTX 28 mg/kg or BCH-1393 50 mg/kg), day 21", "result": 19.3}, {"measurement": "body weight", "setting": "[9]; single agent (CTX 28 mg/kg or BCH-1393 50 mg/kg), day 23", "result": 19.3}, {"measurement": "body weight", "setting": "[9]; single agent (CTX 28 mg/kg or BCH-1393 50 mg/kg), day 25", "result": 19.5}, {"measurement": "body weight", "setting": "[9]; single agent (CTX 28 mg/kg or BCH-1393 50 mg/kg), day 28", "result": 19.7}, {"measurement": "body weight", "setting": "[9]; single agent (CTX 28 mg/kg or BCH-1393 50 mg/kg), day 30", "result": 20.0}, {"measurement": "abnormal signs", "setting": "[10]; [11]", "result": "no abnormal signs"}, {"measurement": "growth curves", "setting": "[10]; [11]", "result": "normal"}, {"measurement": "changes on necropsy", "setting": "[10]; 250 mg/kg and 125 mg/kg i.v., day 8", "result": "No drug induced changes"}, {"measurement": "signs of toxicity", "setting": "[10]; 250 mg/kg i.v., 5 consecutive days", "result": "no signs of toxicity"}, {"measurement": "growth curves", "setting": "[10]; 500 mg/kg i.v., 5 days", "result": "not affected when compared to controls"}, {"measurement": "lethality or effects on growth", "setting": "[10]; 500 mg/kg i.v., 5 days", "result": "no lethality of effects on the growth of the animals"}, {"measurement": "signs of drug effect", "setting": "[10]; 500 mg/kg i.v., 5 days", "result": "twitches of the torso area, tremors of the forepaws and jumping episods; also recorded: some short lasting abnormal signs"}, {"measurement": "duration of signs", "setting": "[10]; 500 mg/kg i.v., after each of five injections", "result": "less than 1 hour"}, {"measurement": "lethality", "setting": "[10]; 1000 mg/kg i.v.", "result": "lethal"}, {"measurement": "signs of drug effect", "setting": "[10]; 1000 mg/kg i.v.", "result": "severe colonic convulsions"}, {"measurement": "time to death", "setting": "[10]; 1000 mg/kg i.v., 1 male and 1 female, both died", "result": "≤ 10", "unit": "min"}, {"measurement": "tolerability", "setting": "[10]; i.v. in Fisher rats", "result": "well tolerated"}, {"measurement": "tolerability (conclusion)", "setting": "[10]; rat, in vivo", "result": "appear to be well tolerated"}]}]}
